Where “and” joins values, the source holds several entries; their conditions need not be identical. Equal values may be shown once.
Key:
WGR domain of PARP2 [1] = target: T1, WGR domain of PARP2 (Homo sapiens, UniProt Q9UGN5); experiment: Tryptophan fluorescence spectroscopy of the WGR domain titrated with divalent cations (one site binding fit); details: for fluorescence intensity (Fig 3d): listed as Zn
T1 construct: WGR domain of PARP2 (residues 77–220) into pET-15b-TEV expression vector; 6xHis (pET-15b-TEV) (N, cleaved yes); made in house; host or cells: Escherichia coli Rosetta2 (DE3) pLysS
Procedure: Fluorescence spectra of Trp residues were measured in the 300–450 nm spectral range at the 270 nm excitation wavelengths using the Cary Eclipse spectrofluorometer (Varian/Agilent, USA).
Fluorescence of WGR domain was measured at 0.5 or 5 µM in a buffer containing 10 mM HEPES (pH 8.0), 150 mM NaCl and 0.73 or 7.3 µM EDTA, respectively. Solutions were complemented with ZnCl2 (0.2–308 µM) or MgCl2 (15–5000 µM), or CaCl2 (8–5000 µM) dissolved in a buffer containing 10 mM HEPES (pH 8.0), 150 mM NaCl. Intensity of the measured spectra was corrected for the concomitant dilution of the WGR domain. Integral intensities (Ifl.) of fluorescence spectra were averaged over three independent measurements (mean ± SEM) and used to plot the corresponding Ifl. vs. ion concentration graphs. Data were fitted with the one site binding equation:2 [drawing 2]
Where C is the concentration of divalent cations, Kd is a dissociation constant of the complex, Im and Ifl0 are maximal and initial values of Ifl., respectively.

WGR domain of PARP2 [2] = target: T1, WGR domain of PARP2; experiment: Circular dichroism spectroscopy of the WGR domain (BeStSel secondary structure analysis); parameters: content of a-helix in the WGR domain / content of b-sheet in the WGR domain / content of turn in the WGR domain / content of random coil in the WGR domain: unit not given here
Procedure: CD spectra of proteins were recorded within the 190-250 nm spectral range with 0.2 nm step using Jasco-810 spectrophotometer (Jasco, Japan) and the quartz […]® cuvette of 0.1 mm thickness (Hellma, Germany. Secondary structure analysis was performed using BeStSel webserver. To improve the reliability of the analysis, the content of canonical secondary structures of various types was predicted for 3-6 independent measurements, and the values were averaged. The statistical significance of the secondary structure difference was determined using the multiple t-test.

[3] = target: T2, PARP2-nucleosome complexes (Mus musculus, UniProt O88554); experiment: spFRET microscopy in solution of nucleosomes and PARP2-nucleosome complexes; details: for EPR centre of the structural state of nucleosomes: PARP2 plus 0.3 mM Zn2+
T2 construct: Recombinant mouse full-length PARP2 was obtained in the baculovirus expression system; made in house; host or cells: PARP2: Sf9 insect cells (baculovirus), gift of Prof; O. Lavrik; nucleosomes assembled in house
Procedure: In the study of nucleosome-PARP2 interactions, nucleosomes (1-2 nM) were incubated with PARP2 (12.5-200 nM) in buffer A (50 mM Tris-HCl pH 7.5; 40 mM NaCl; 0.5 mM β-mercaptoethanol (β-ME); 0.1% NP40) at 25 °C for 30 min. When indicated, buffer A was supplemented with 50 μM - 5 mM ZnCl2, 5 mM CaCl2 or 5 mM MgCl2. […] […] measurements in solution were performed as described previously. Each measured single nucleosome was characterized by FRET between Cy3 and Cy5 labels calculated as a proximity ratio (EPR):1 [drawing 1] Where I3 and I5 are fluorescence intensities of Cy3 and Cy5, respectively, and coefficients 0.19 and 0.81 provide correction for the spectral cross-talk between Cy3 and Cy5 detection channels. EPR is a FRET efficiency not corrected for quantum yields of labels and an instrumentation factor. Relative frequency distributions of nucleosomes by EPR values, i.e. EPR profiles, (2000-5000 nucleosomes per experiment; 3 independent experiments) were plotted and further analyzed as a superposition of several normal (Gaussian) distributions for nucleosomes or nucleosome-PARP2 complexes. Since nucleosomes tend to aggregate when PARP2 is added (especially at high concentrations), treatment of signals measured from nucleosomes and their complexes included mandatory rejection of signals from any aggregates that are clearly recognized due to their slow diffusion rate and/or abnormally high fluorescence intensity.

[4] = 0.5 mM ion, independent measurements

T1 sequence (Q9UGN5 77-220): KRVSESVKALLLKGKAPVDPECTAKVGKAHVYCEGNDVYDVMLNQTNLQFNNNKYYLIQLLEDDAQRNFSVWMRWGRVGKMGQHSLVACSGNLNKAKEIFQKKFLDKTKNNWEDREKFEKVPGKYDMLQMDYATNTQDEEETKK

## [Cl-].[Cl-].[Zn+2] [Zn2+, ZnCl2]
WGR domain of PARP2 [1]; Figure S4
  Zn2+ concentration at which changes in the fluorescence of Trp residues of the WGR domain were observed: 0.4 to 5 µM
WGR domain of PARP2 [1]; Trp fluorescence, one site binding fit, 10 mM HEPES pH 8.0, 150 mM NaCl, residual EDTA present, read-out: dissociation constant of the divalent cation-WGR domain complex
  Kd: 2000 nM and ~2000 nM
WGR domain of PARP2 [1]; WGR domain 5 µM
  effect of ions on intensity of tryptophan fluorescence of the WGR domain: considerably increased
WGR domain of PARP2 [1]; wavelength 330.000, 5.9 uM Zn
  fluorescence intensity (Fig 3d): 64.607 and 70.927 and 88.925 and 69.072
WGR domain of PARP2 [1]; wavelength 330.000, 11.6 uM Zn
  fluorescence intensity (Fig 3d): 118.714 and 102.531 and 101.352 and 109.279
WGR domain of PARP2 [1]; wavelength 330.000, 17.2 uM
  fluorescence intensity (Fig 3d): 125.078 and 114.327 and 116.086 and 114.151
WGR domain of PARP2 [1]; wavelength 330.000, 22.1 uM
  fluorescence intensity (Fig 3d): 125.812 and 115.097 and 117.722 and 114.227
WGR domain of PARP2 [1]; wavelength 330.000, 303 uM + 7 mM EDTA
  fluorescence intensity (Fig 3d): 42.022 and 51.928 and 42.125 and 50.264
WGR domain of PARP2 [1]; wavelength 330.000, 308 uM
  fluorescence intensity (Fig 3d): 125.859 and 119.818 and 119.168 and 117.804
WGR domain of PARP2 [1]; wavelength 331.070, 5.9 uM Zn
  fluorescence intensity (Fig 3d): 65.518 and 73.717 and 91.313 and 71.214
WGR domain of PARP2 [1]; wavelength 331.070, 11.6 uM Zn
  fluorescence intensity (Fig 3d): 121.141 and 105.018 and 103.680 and 111.886
WGR domain of PARP2 [1]; wavelength 331.070, 17.2 uM
  fluorescence intensity (Fig 3d): 128.785 and 116.958 and 116.866 and 116.180
WGR domain of PARP2 [1]; wavelength 331.070, 22.1 uM
  fluorescence intensity (Fig 3d): 127.402 and 115.749 and 117.457 and 117.342
WGR domain of PARP2 [1]; wavelength 331.070, 303 uM + 7 mM EDTA
  fluorescence intensity (Fig 3d): 42.915 and 54.693 and 43.072 and 51.479
WGR domain of PARP2 [1]; wavelength 331.070, 308 uM
  fluorescence intensity (Fig 3d): 129.366 and 122.539 and 123.005 and 119.729
WGR domain of PARP2 [1]; wavelength 332.000, 5.9 uM Zn
  fluorescence intensity (Fig 3d): 66.418 and 75.386 and 92.296 and 72.347
WGR domain of PARP2 [1]; wavelength 332.000, 11.6 uM Zn
  fluorescence intensity (Fig 3d): 123.485 and 106.394 and 106.147 and 113.513
WGR domain of PARP2 [1]; wavelength 332.000, 17.2 uM
  fluorescence intensity (Fig 3d): 128.874 and 118.064 and 118.851 and 118.214
WGR domain of PARP2 [1]; wavelength 332.000, 22.1 uM
  fluorescence intensity (Fig 3d): 131.124 and 117.614 and 119.985 and 119.070
WGR domain of PARP2 [1]; wavelength 332.000, 303 uM + 7 mM EDTA
  fluorescence intensity (Fig 3d): 43.600 and 54.088 and 43.890 and 52.288
WGR domain of PARP2 [1]; wavelength 332.000, 308 uM
  fluorescence intensity (Fig 3d): 130.593 and 122.360 and 123.201 and 121.123
WGR domain of PARP2 [1]; wavelength 333.070, 5.9 uM Zn
  fluorescence intensity (Fig 3d): 68.103 and 76.819 and 93.790 and 71.930
WGR domain of PARP2 [1]; wavelength 333.070, 11.6 uM Zn
  fluorescence intensity (Fig 3d): 125.333 and 108.991 and 107.827 and 116.743
WGR domain of PARP2 [1]; wavelength 333.070, 17.2 uM
  fluorescence intensity (Fig 3d): 132.720 and 120.694 and 121.118 and 119.035
WGR domain of PARP2 [1]; wavelength 333.070, 22.1 uM
  fluorescence intensity (Fig 3d): 132.619 and 121.520 and 120.252 and 122.459
WGR domain of PARP2 [1]; wavelength 333.070, 303 uM + 7 mM EDTA
  fluorescence intensity (Fig 3d): 43.562 and 54.895 and 44.695 and 52.661
WGR domain of PARP2 [1]; wavelength 333.070, 308 uM
  fluorescence intensity (Fig 3d): 133.279 and 127.119 and 125.798 and 122.486
WGR domain of PARP2 [1]; wavelength 334.000, 5.9 uM Zn
  fluorescence intensity (Fig 3d): 68.621 and 78.226
WGR domain of PARP2 [1]; wavelength 334.000, 11.6 uM Zn
  fluorescence intensity (Fig 3d): 126.789 and 111.115
WGR domain of PARP2 [2]
  effect of ions on the structure of the WGR domain (CD): significantly changes
WGR domain of PARP2 [2]; [4]
  content of b-sheet in the WGR domain: 26.6 and 28 and 25.5 and 34.1 and 29.7
  content of random coil in the WGR domain: 48.2 and 46 and 53.4 and 46.2
  content of turn in the WGR domain: 15.4 and 13.9 and 14.7 and 15.1 and 13.3
[3]; NP nucleosomes without PARP2, 5 mM ions
  effect of ions on the nucleosome structure: minimally affect
[3]; NP nucleosomes, PARP2 plus Zn2+
  EPR centre of the new peak in the EPR profile: 0.4
[3]; Nd nucleosomes
  EPR centre of the structural state of nucleosomes: 0.5
[3]; Nm nucleosomes
  EPR centre of the structural state of nucleosomes: 0.4
[3]; PARP2 50 nM, NP nucleosomes
  Zn2+ concentration above which the structure of PARP2-nucleosome complexes is affected: higher than 75 µM
  Zn2+ concentration at which all the complexes are converted to the altered conformation: 150 µM
[3]; PARP2 50 nM, Zn2+ 0.3 mM, Ca2+ 5 mM or Mg2+ 5 mM
  effect of ions on the structure of nucleosomes in PARP2-nucleosome complexes: induce alterations in the structure of PARP2-nucleosome complexes
[3]; compared with EMSA in the absence of Zn2+
  effect of Zn2+ on the affinity of PARP2 to nucleosomes: not significantly affected

From PMC12209172, “Poly(ADP-ribose)polymerase 2 is zinc-dependent enzyme and nucleosome reorganizer” (Cellular and Molecular Life Sciences: CMLS, 2025)
